From publication PMC9551036, “A selective and orally bioavailable VHL-recruiting PROTAC achieves SMARCA2 degradation in vivo” (Nature Communications, 2022)
Several values for one entry are separate records, joined by “and”; a condition that tells them apart may be missing. Equal entries are not always repeated. Where two headings read alike, the source gives them in different places.

What was measured:
SMARCA2 = SMARCA2 (Homo sapiens, UniProt P51531); assay: Western blot of SMARCA2 degradation in NCI-H1568 cells; type: cell-based; set-up: endogenous in cells; host or cells: RKO, NCI-H1568, A549, HCT116, LU99, HCC-364, HCT-15, HCC4006, SK-N-AS
SMARCA2, sequence (P51531 whole entry): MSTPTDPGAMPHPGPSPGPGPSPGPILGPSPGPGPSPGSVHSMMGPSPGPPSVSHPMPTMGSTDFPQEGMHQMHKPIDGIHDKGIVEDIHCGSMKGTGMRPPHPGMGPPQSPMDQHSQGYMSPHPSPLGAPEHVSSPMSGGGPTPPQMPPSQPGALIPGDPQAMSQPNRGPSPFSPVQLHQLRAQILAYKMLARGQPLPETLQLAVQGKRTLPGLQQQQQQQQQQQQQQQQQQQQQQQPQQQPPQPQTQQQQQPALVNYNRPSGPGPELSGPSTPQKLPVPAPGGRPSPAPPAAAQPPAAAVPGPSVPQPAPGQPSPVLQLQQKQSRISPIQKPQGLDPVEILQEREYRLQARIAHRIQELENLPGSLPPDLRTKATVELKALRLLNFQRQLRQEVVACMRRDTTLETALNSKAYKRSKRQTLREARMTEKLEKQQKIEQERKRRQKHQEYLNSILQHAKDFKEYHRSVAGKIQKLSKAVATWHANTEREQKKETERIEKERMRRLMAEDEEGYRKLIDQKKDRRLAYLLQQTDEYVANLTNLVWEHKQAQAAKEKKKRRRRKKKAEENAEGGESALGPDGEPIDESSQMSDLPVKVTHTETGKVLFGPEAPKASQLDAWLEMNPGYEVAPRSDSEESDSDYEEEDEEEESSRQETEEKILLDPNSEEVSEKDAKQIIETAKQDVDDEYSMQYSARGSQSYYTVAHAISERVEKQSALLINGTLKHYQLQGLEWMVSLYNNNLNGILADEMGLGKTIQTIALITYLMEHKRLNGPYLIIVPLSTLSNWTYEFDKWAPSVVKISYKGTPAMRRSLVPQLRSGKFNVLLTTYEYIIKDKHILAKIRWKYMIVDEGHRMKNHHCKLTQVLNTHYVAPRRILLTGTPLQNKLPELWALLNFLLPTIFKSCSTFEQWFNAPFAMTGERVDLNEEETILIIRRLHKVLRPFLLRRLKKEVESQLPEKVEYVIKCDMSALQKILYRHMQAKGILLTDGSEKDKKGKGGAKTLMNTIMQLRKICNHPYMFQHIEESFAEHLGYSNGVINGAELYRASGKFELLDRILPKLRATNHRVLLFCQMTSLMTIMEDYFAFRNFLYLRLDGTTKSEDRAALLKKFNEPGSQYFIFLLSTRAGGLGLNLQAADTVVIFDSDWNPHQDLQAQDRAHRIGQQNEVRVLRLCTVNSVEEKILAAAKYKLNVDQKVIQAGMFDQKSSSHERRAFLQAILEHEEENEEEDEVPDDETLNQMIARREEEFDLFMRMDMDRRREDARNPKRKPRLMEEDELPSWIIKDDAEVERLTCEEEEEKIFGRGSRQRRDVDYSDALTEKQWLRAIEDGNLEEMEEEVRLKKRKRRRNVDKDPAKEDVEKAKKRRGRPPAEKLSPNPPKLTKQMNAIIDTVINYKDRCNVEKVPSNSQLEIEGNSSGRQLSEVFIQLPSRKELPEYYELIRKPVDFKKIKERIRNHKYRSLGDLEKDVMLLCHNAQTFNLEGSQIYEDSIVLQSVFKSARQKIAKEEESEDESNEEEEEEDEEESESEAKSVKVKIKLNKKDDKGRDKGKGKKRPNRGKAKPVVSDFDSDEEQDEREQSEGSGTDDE
Description: Cells were seeded into 6-well plates 24 h before treatment. Next day, several wells were treated with compounds or DMSO as indicated, washed with PBS and lysed with lysis buffer (1% Triton X-100, 150 mM NaCl, 1 mM EDTA, 50 mM Tris pH 7.4, protease inhibitor cocktail (Roche), 50 units/mL benzonase nuclease (Sigma)). Lysates were cleared by centrifugation at 4 °C, at 15,800 × g for 10 min and the supernatants stored at −20 °C. Protein concentration was determined by BCA assay (Pierce) and the absorbance at 562 nm measured by spectrophotometry (NanoDrop ND1000). […] Western blot images were obtained through detection of SMARCA2 (Sigma #HPA029981 RRID:AB_10602406 1:1000), SMARCA4 (Abcam #ab108318 clone EPR3912 RRID:AB_10889900 1:1000), PBRM1 (Bethyl Laboratories #A301-591A RRID:AB_1078808 1:1000), β-actin (Cell Signalling #4970 clone 13E5 RRID:AB_2223172 1:2500) and GAPDH (Abcam #ab9485 RRID:AB_307275 1:2500) antibodies with IRDye 800CW donkey anti-rabbit secondary antibody (LI-COR #926-32213 RRID:AB_621848 1:10000) using a ChemiDoc MP imaging system (Bio-Rad). Western blots were quantified using Image Studio Lite (Licor, version 5.2) with normalisation to loading control and DMSO and further analysed using GraphPad Prism (version 9.2.0).

SMARCA4 = SMARCA4 (Homo sapiens, UniProt P51532); assay: SMARCA4 capillary electrophoresis protein assay in other cell lines (HCT116, LU99, HCC-364, HCT-15, HCC4006, SK-N-AS); type: cell-based; set-up: endogenous in cells; host or cells: RKO, HCT116, LU99, HCC-364, HCT-15, HCC4006, SK-N-AS; conditions: for Bottom (best-fit value, % protein remaining) / DC50 / HillSlope: four-parameter fit; for LogEC50: log10 of concentration in mol/l; for DC50: protein degradation, read-out: EC50 (the source's name)
SMARCA4, sequence (P51532 whole entry): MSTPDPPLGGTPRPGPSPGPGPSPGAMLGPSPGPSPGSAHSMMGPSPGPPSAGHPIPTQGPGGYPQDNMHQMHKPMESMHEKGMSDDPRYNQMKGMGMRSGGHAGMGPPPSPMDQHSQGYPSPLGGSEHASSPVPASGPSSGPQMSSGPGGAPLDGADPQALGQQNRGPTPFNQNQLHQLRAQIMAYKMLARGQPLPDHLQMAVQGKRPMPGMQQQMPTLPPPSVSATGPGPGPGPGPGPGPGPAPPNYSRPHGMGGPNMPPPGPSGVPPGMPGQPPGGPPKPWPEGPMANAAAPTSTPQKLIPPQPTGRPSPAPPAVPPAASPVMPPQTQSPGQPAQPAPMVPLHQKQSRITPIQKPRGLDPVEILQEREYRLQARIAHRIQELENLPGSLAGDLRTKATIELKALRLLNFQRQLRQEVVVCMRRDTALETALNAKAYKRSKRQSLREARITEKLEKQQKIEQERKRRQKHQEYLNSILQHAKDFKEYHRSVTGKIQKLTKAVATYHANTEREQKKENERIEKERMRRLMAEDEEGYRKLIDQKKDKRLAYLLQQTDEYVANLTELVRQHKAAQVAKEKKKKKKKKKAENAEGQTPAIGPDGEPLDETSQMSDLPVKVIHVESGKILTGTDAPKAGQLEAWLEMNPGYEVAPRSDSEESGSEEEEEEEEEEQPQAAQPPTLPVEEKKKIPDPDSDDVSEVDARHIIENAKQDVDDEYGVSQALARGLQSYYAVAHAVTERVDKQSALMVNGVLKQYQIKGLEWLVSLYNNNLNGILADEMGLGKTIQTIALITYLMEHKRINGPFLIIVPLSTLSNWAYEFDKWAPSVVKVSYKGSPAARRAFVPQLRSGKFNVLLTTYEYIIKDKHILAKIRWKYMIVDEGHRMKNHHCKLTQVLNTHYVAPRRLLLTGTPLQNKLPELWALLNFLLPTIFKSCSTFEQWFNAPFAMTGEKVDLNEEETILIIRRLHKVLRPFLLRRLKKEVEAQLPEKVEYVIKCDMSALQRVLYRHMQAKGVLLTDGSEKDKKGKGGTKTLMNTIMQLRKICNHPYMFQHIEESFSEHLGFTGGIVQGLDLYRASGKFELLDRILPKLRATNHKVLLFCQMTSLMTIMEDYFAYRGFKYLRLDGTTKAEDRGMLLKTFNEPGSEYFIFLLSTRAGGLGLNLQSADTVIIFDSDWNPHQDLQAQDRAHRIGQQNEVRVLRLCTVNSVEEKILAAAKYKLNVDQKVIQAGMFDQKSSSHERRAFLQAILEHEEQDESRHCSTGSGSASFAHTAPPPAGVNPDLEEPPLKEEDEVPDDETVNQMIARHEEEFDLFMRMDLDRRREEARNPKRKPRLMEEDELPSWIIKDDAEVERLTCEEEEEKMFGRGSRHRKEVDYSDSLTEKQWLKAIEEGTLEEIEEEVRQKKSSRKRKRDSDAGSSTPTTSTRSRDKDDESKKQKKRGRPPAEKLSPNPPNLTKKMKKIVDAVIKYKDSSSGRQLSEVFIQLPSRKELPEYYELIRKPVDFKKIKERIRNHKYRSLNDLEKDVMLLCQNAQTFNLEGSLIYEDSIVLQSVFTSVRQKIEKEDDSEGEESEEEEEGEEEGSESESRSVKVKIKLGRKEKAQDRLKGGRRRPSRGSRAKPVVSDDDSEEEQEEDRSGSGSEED
Description: 130,000–200,000 cells were seeded in 24-well plates and incubated until settled down or overnight. Compounds were dissolved in DMSO and added to cells in indicated concentrations using a digital dispenser following an optional media change. […] For SMARCA2/4 half-life determination, 150,000 or 200,000 cells were seeded in 24-well plates. […] For SMARCA2/4 re-synthesis measurements, 200,000 cells were seeded in 24-well plates. […] Medium was removed, cells were washed with PBS and lysed with 80 µl Lysis Buffer (MSD Tris Lysis Buffer (#R60TX-2) + Halt Inhibitor Cocktail (100x) + Benzonase 0.5 µL/ml). Samples were frozen at −80 °C and thawed at room temperature before use. Samples were transferred to a V-bottom plate and insoluble debris was pelleted by centrifugation for 5 min at maximum speed. The supernatant was transferred to a fresh plate. Master Mix and Ladder were prepared according to manufacturer’s instructions for 12–230 kDa Wes Separation Module, 8 × 25 capillary cartridges, Protein Simple #SM-W004 with Anti-Rabbit Detection Module for Wes, Peggy Sue or Sally Sue, Protein Simple #DM-001. 4.8 µl lysate were mixed with 1.2 µl Master Mix to achieve a protein concentration of ~0.5 µg/µl. […] Wes plates were prepared and run according to manufacturer’s instructions. Proteins were quantified with accompanying Compass Software. SMARCA2/4 protein levels were normalised to GAPDH. […] Where applicable, curves were fitted using a 4-parametric logistic model.

[1] = SuppFig3a, 10 nM, per replicate
[2] = SuppFig3a, 100 nM, per replicate
[3] = SuppFig3a, 1000 nM, per replicate
[4] = SuppFig3c, compound 100 nM + MG132 10 uM
[5] = SuppFig3c, compound 100 nM + VH298 10 uM
[6] = SuppFig3c, compound 100 nM alone

Q: For `Cc1ncsc1-c1ccc(C(CCC(C)CCN2CCC(c3ccc4c(c3)n(C3CCCC3)c3nc(=O)c5c(Br)cccc5n43)CC2)NC(=O)C2CC(O)CN2C(=O)C(NC(=O)C2(F)CC2)C(C)(C)C)cc1` (stereo not drawn) [ACBI2], which “SMARCA2 degradation, % DMSO” value (SMARCA2; SuppFig3a, 1 nM, per replicate) is on record?
A: 73.2377 % DMSO and 115.98 % DMSO and 86.1519 % DMSO

Q: What about the “smarca2/actin norm to DMSO” value (SMARCA2; SuppFig3a, 1 nM, per replicate) of the same compound?
A: 0.7324 and 1.1598 and 0.8615

Q: What about the “SMARCA2 degradation, % DMSO” value (SMARCA2; [1]) of the same compound?
A: 22.5404 % DMSO and 46.107 % DMSO and 14.5628 % DMSO

Q: And the “smarca2/actin norm to DMSO” value (SMARCA2; [1])?
A: 0.2254 and 0.4611 and 0.1456

Q: What about the “SMARCA2 degradation, % DMSO” value (SMARCA2; [2]) of the same compound?
A: 4.651 % DMSO and 9.376 % DMSO and 28.142 % DMSO

Q: What about the “smarca2/actin norm to DMSO” value (SMARCA2; [2]) of the same compound?
A: 0.04651 and 0.09376 and 0.2814

Q: What about the “SMARCA2 degradation, % DMSO” value (SMARCA2; [3]) of the same compound?
A: 10.8582 % DMSO and 28.1242 % DMSO and 17.6912 % DMSO

Q: And the “smarca2/actin norm to DMSO” value (SMARCA2; [3])?
A: 0.1086 and 0.2812 and 0.1769

Q: What about the “SMARCA2 - combination with inhibitors, % DMSO” value (SMARCA2; [4]) of the same compound?
A: 144.315 % DMSO and 128.607 % DMSO and 88.3654 % DMSO

Q: And the “smarca2/actin norm to DMSO” value (SMARCA2; [4])?
A: 1.443 and 1.286 and 0.8837

Q: What about the “SMARCA2 - combination with inhibitors, % DMSO” value (SMARCA2; [5]) of the same compound?
A: 71.7463 % DMSO and 98.6474 % DMSO and 62.3416 % DMSO

Q: What about the “smarca2/actin norm to DMSO” value (SMARCA2; [5]) of the same compound?
A: 0.7175 and 0.9865 and 0.6234

Q: What about the “SMARCA2 - combination with inhibitors, % DMSO” value (SMARCA2; [6]) of the same compound?
A: 15.1306 % DMSO and 12.518 % DMSO and 13.0375 % DMSO

Q: And the “smarca2/actin norm to DMSO” value (SMARCA2; [6])?
A: 0.1513 and 0.1252 and 0.1304

Q: What about the “Bottom (best-fit value, % protein remaining)” value (SMARCA4; HCC4006_SM4) of the same compound?
A: 9.858%

Q: What about the “% protein remaining” value (SMARCA4; HCC4006_SM4, log10[concentration (mol/l)] -6) of the same compound?
A: 8.466% and 14.8549% and 6.254%

Q: What about the “% protein remaining” value (SMARCA4; HCC4006_SM4, log10[concentration (mol/l)] -8) of the same compound?
A: 107.17% and 168.214% and 84.8869%

Q: And the “% protein remaining” value (SMARCA4; HCC4006_SM4, log10[concentration (mol/l)] -10)?
A: 87.4945% and 108.459% and 92.3747%

Q: And the LogEC50 (SMARCA4; HCC4006_SM4)?
A: -7.029

Q: And the DC50 (SMARCA4; HCC4006_SM4)?
A: 93.5 nM

Q: And the “Bottom (best-fit value, % protein remaining)” value (SMARCA4; HCC-364_SM4)?
A: 3.161%

Q: And the HillSlope (SMARCA4; HCC-364_SM4)?
A: -1.653

Q: What about the “% protein remaining” value (SMARCA4; HCC-364_SM4, log10[concentration (mol/l)] -6) of the same compound?
A: 3.167% and 1.374% and 3.983%

Q: What about the “% protein remaining” value (SMARCA4; HCC-364_SM4, log10[concentration (mol/l)] -7) of the same compound?
A: 9.937% and 9.321% and 6.672%

Q: And the “% protein remaining” value (SMARCA4; HCC-364_SM4, log10[concentration (mol/l)] -8)?
A: 73.4926% and 97.1764% and 52.0353%

Q: And the “% protein remaining” value (SMARCA4; HCC-364_SM4, log10[concentration (mol/l)] -9)?
A: 95.3509% and 123.202% and 101.968%

Q: And the “% protein remaining” value (SMARCA4; HCC-364_SM4, log10[concentration (mol/l)] -10)?
A: 89.9664% and 104.013% and 115.065%

Q: What about the LogEC50 (SMARCA4; HCC-364_SM4) of the same compound?
A: -7.78

Q: What about the DC50 (SMARCA4; HCC-364_SM4) of the same compound?
A: 16.6 nM

Q: And the “Bottom (% protein remaining, four-parameter fit)” value (SMARCA4; HCT116, SM4)?
A: 25.06%

Q: What about the “HillSlope (protein remaining)” value (SMARCA4; HCT116, SM4) of the same compound?
A: -2.072

Q: And the “Top (% protein remaining, four-parameter fit)” value (SMARCA4; HCT116, SM4)?
A: 134.1%

Q: And the “% protein remaining” value (SMARCA4; HCT116, SM4, conc 9.54e-12 mol/l)?
A: 111.196% and 129.494%

Q: What about the “% protein remaining” value (SMARCA4; HCT116, SM4, conc 3.81e-11 mol/l) of the same compound?
A: 120.316% and 148.32%

Q: What about the “% protein remaining” value (SMARCA4; HCT116, SM4, conc 1.53e-10 mol/l) of the same compound?
A: 129.784% and 140.879%

Q: What about the “% protein remaining” value (SMARCA4; HCT116, SM4, conc 6.1e-10 mol/l) of the same compound?
A: 129.281% and 147.637%

Q: What about the “% protein remaining” value (SMARCA4; HCT116, SM4, conc 2.44e-9 mol/l) of the same compound?
A: 120.666% and 159.63%

Q: And the “% protein remaining” value (SMARCA4; HCT116, SM4, conc 9.77e-9 mol/l)?
A: 125.866% and 131.203%

Q: And the “% protein remaining” value (SMARCA4; HCT116, SM4, conc 3.91e-8 mol/l)?
A: 69.9313% and 71.3683%

Q: And the “% protein remaining” value (SMARCA4; HCT116, SM4, conc 1.56e-7 mol/l)?
A: 36.8806% and 32.4224%

Q: What about the “% protein remaining” value (SMARCA4; HCT116, SM4, conc 6.25e-7 mol/l) of the same compound?
A: 24.622% and 20.2431%

Q: And the “% protein remaining” value (SMARCA4; HCT116, SM4, conc 2.5e-6 mol/l)?
A: 26.4349% and 21.0447%

Q: And the HillSlope (SMARCA4; HCT-15_SM4)?
A: -0.3445

Q: What about the “% protein remaining” value (SMARCA4; HCT-15_SM4, log10[concentration (mol/l)] -6) of the same compound?
A: 18.6748% and 17.1977% and 14.8633%

Q: And the “% protein remaining” value (SMARCA4; HCT-15_SM4, log10[concentration (mol/l)] -7)?
A: 73.6571% and 71.0762% and 61.1459%

Q: What about the “% protein remaining” value (SMARCA4; HCT-15_SM4, log10[concentration (mol/l)] -8) of the same compound?
A: 98.6414% and 84.1205% and 64.0182%

Q: And the “% protein remaining” value (SMARCA4; HCT-15_SM4, log10[concentration (mol/l)] -9)?
A: 109.23% and 94.5032% and 92.8527%

Q: And the “% protein remaining” value (SMARCA4; HCT-15_SM4, log10[concentration (mol/l)] -10)?
A: 99.1975% and 103.016%

Q: And the “Bottom (best-fit value, % protein remaining)” value (SMARCA4; LU99_SM4)?
A: 6.337%

Q: And the HillSlope (SMARCA4; LU99_SM4)?
A: -1.201

Q: What about the “% protein remaining” value (SMARCA4; LU99_SM4, log10[concentration (mol/l)] -8) of the same compound?
A: 52.7226% and 80.027% and 88.2243% and 72.2723%

Q: And the “% protein remaining” value (SMARCA4; LU99_SM4, log10[concentration (mol/l)] -9)?
A: 95.2248% and 87.3538% and 102.946% and 96.8042%

Q: And the “% protein remaining” value (SMARCA4; LU99_SM4, log10[concentration (mol/l)] -10)?
A: 95.6247% and 91.3% and 105.138% and 100.656%

Q: What about the LogEC50 (SMARCA4; LU99_SM4) of the same compound?
A: -7.559

Q: What about the DC50 (SMARCA4; LU99_SM4) of the same compound?
A: 27.6 nM

Q: And the “Bottom (best-fit value, % protein remaining)” value (SMARCA4; SK-N-AS_SM4)?
A: 7.287%

Q: And the HillSlope (SMARCA4; SK-N-AS_SM4)?
A: -0.8189

Q: What about the “% protein remaining” value (SMARCA4; SK-N-AS_SM4, log10[concentration (mol/l)] -6) of the same compound?
A: 10.7051% and 13.0346%

Q: And the “% protein remaining” value (SMARCA4; SK-N-AS_SM4, log10[concentration (mol/l)] -8)?
A: 53.489% and 73.7834%

Q: And the “% protein remaining” value (SMARCA4; SK-N-AS_SM4, log10[concentration (mol/l)] -9)?
A: 84.3752% and 77.8596%

Q: What about the “% protein remaining” value (SMARCA4; SK-N-AS_SM4, log10[concentration (mol/l)] -10) of the same compound?
A: 91.2323% and 74.8856%

Q: And the LogEC50 (SMARCA4; SK-N-AS_SM4)?
A: -7.454

Q: What about the DC50 (SMARCA4; SK-N-AS_SM4) of the same compound?
A: 35.2 nM
